Data from PMC4490784, “Compensatory induction of MYC expression by sustained CDK9 inhibition via a BRD4-dependent mechanism” (eLife, 2015).

Experiments:
Test in all cases: KINOMEscan binding assay
[1] = target: T1, ABL1(F317L)-phosphorylated (Homo sapiens, UniProt P00519, F317L); settings: 1 µM i-CDK9; read-out: % Retention on Solid Support
T1 construct: purchased DiscoveRx KINOMEscan
In short: (§1)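 Competitive displacement at the ATP site served as the measure. Over 400 kinases were included, each exposed to i-CDK9 at 1 and at 10 µM.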

ACVR1 = target: T2, ACVR1 (Homo sapiens, UniProt Q04771); settings: read-out: % Retention on Solid Support
T2 construct: purchased DiscoveRx KINOMEscan
In short: as §1

AMPK-alpha1 = target: T3, AMPK-alpha1 (Homo sapiens, UniProt Q13131); settings: read-out: % Retention on Solid Support
T3 construct: purchased DiscoveRx KINOMEscan
In short: as §1

CAMK1 = target: T4, CAMK1 (Homo sapiens, UniProt Q14012); settings: read-out: % Retention on Solid Support
T4 construct: purchased DiscoveRx KINOMEscan
In short: as §1

CDC2L5 = target: T5, CDC2L5 (Homo sapiens, UniProt Q14004); settings: 1 µM i-CDK9
T5 construct: purchased DiscoveRx KINOMEscan
In short: as §1

CSNK2A1 = target: T6, CSNK2A1 (Homo sapiens, UniProt P68400); settings: read-out: % Retention on Solid Support
T6 construct: purchased DiscoveRx KINOMEscan
In short: as §1

DYRK2 = target: T7, DYRK2 (Homo sapiens, UniProt Q92630); settings: read-out: % Retention on Solid Support
T7 construct: purchased DiscoveRx KINOMEscan
T7 sequence (Q92630 1-601): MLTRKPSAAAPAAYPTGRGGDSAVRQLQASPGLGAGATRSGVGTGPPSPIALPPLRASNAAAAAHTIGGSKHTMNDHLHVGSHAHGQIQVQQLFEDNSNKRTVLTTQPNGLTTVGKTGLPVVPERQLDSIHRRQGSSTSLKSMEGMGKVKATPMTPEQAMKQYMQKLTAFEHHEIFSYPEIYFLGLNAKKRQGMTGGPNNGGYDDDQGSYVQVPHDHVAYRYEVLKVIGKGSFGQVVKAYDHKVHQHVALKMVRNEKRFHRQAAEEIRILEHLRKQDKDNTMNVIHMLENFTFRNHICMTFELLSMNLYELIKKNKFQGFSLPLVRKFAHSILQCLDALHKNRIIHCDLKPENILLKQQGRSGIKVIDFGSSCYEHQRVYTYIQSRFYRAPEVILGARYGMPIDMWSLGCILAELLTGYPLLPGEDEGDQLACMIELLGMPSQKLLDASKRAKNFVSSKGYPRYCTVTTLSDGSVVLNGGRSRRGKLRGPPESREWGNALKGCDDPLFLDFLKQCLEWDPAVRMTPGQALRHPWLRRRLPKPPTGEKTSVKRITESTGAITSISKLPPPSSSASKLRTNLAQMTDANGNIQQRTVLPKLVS
In short: as §1

FAK = target: T8, FAK (Homo sapiens, UniProt Q05397); settings: read-out: % Retention on Solid Support
T8 construct: purchased DiscoveRx KINOMEscan
In short: as §1

FER = target: T9, FER (Homo sapiens, UniProt P16591); settings: read-out: % Retention on Solid Support
T9 construct: purchased DiscoveRx KINOMEscan
In short: as §1

FLT3(N841I) = target: T10, FLT3(N841I) (Homo sapiens, UniProt P36888, N841I); settings: read-out: % Retention on Solid Support
T10 construct: purchased DiscoveRx KINOMEscan
In short: as §1

GRK7 = target: T11, GRK7 (Homo sapiens, UniProt Q8WTQ7); settings: read-out: % Retention on Solid Support
T11 construct: purchased DiscoveRx KINOMEscan
In short: as §1

JNK1 = target: T12, JNK1 (Homo sapiens, UniProt P45983)
T12 construct: purchased DiscoveRx KINOMEscan
In short: as §1

PIK3C2B = target: T13, PIK3C2B (Homo sapiens, UniProt O00750); settings: read-out: % Retention on Solid Support
T13 construct: purchased DiscoveRx KINOMEscan
In short: as §1

PIK3CA(E545K) = target: T14, PIK3CA(E545K) (Homo sapiens, UniProt P42336, E545K); settings: read-out: % Retention on Solid Support
T14 construct: purchased DiscoveRx KINOMEscan
In short: as §1

PRKCH = target: T15, PRKCH (Homo sapiens, UniProt P24723); settings: read-out: % Retention on Solid Support
T15 construct: purchased DiscoveRx KINOMEscan
In short: as §1

[2] = target: T16, RSK1(Kin.Dom.1-N-terminal) (Homo sapiens, UniProt Q15418); settings: read-out: % Retention on Solid Support
T16 construct: RSK1(Kin.Dom.1-N-terminal); purchased DiscoveRx KINOMEscan
In short: as §1

SNRK = target: T17, SNRK (Homo sapiens, UniProt Q9NRH2); settings: 1 µM i-CDK9; read-out: % Retention on Solid Support
T17 construct: purchased DiscoveRx KINOMEscan
In short: as §1

SRMS = target: T18, SRMS (Homo sapiens, UniProt Q9H3Y6); settings: read-out: % Retention on Solid Support
T18 construct: purchased DiscoveRx KINOMEscan
In short: as §1

TGFBR1 = target: T19, TGFBR1 (Homo sapiens, UniProt P36897); settings: read-out: % Retention on Solid Support
T19 construct: purchased DiscoveRx KINOMEscan
In short: as §1

TLK2 = target: T20, TLK2 (Homo sapiens, UniProt Q86UE8); settings: read-out: % Retention on Solid Support
T20 construct: purchased DiscoveRx KINOMEscan
In short: as §1

TTK = target: T21, TTK (Homo sapiens, UniProt P33981); settings: read-out: % Retention on Solid Support
T21 construct: purchased DiscoveRx KINOMEscan
In short: as §1

ULK2 = target: T22, ULK2 (Homo sapiens, UniProt Q8IYT8); settings: read-out: % Retention on Solid Support
T22 construct: purchased DiscoveRx KINOMEscan
In short: as §1

p38-gamma = target: T23, p38-gamma (Homo sapiens, UniProt P53778); settings: read-out: % Retention on Solid Support
T23 construct: purchased DiscoveRx KINOMEscan
In short: as §1

T13 sequence (O00750 whole entry): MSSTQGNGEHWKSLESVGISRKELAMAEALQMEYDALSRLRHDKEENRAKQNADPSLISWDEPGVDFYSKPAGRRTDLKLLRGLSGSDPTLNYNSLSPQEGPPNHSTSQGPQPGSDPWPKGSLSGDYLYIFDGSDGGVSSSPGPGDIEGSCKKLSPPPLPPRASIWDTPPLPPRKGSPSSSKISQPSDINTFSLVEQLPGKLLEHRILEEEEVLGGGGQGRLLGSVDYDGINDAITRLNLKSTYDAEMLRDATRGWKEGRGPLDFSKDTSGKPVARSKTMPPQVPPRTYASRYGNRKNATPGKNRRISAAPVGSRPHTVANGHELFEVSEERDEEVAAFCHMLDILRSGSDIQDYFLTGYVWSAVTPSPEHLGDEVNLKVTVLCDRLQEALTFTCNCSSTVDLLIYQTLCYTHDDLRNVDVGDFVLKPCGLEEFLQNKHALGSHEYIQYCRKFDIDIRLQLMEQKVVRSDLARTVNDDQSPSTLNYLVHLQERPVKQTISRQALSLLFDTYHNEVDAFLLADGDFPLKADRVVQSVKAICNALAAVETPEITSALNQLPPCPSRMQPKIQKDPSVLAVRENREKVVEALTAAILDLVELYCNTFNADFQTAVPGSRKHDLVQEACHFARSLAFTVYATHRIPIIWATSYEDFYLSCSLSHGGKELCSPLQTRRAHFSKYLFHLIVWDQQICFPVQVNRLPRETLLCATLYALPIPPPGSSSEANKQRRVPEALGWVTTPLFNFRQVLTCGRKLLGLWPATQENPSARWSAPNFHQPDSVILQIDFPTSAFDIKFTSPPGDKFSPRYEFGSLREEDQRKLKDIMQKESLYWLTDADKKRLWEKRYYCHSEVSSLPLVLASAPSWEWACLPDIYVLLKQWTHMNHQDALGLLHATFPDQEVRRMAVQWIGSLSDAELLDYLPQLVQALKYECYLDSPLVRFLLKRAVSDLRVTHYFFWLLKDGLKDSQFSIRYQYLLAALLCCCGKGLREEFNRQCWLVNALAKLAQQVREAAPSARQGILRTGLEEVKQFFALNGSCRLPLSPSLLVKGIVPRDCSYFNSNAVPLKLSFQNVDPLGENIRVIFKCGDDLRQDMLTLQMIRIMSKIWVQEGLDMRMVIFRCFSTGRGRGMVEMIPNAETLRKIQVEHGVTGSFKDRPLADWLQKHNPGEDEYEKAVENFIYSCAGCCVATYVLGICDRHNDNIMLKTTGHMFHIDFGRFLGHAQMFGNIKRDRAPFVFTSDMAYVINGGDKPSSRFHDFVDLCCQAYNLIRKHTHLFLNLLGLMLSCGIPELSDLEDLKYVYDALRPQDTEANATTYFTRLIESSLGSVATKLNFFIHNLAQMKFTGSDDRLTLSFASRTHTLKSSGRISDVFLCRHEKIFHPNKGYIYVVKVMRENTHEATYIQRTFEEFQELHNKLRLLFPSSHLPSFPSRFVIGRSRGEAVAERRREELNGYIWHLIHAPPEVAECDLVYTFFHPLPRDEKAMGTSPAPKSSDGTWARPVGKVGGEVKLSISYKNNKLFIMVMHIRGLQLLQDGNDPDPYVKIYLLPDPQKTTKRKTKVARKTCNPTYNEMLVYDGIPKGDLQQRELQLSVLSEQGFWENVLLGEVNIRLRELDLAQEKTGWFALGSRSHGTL
T3 sequence (Q13131 whole entry): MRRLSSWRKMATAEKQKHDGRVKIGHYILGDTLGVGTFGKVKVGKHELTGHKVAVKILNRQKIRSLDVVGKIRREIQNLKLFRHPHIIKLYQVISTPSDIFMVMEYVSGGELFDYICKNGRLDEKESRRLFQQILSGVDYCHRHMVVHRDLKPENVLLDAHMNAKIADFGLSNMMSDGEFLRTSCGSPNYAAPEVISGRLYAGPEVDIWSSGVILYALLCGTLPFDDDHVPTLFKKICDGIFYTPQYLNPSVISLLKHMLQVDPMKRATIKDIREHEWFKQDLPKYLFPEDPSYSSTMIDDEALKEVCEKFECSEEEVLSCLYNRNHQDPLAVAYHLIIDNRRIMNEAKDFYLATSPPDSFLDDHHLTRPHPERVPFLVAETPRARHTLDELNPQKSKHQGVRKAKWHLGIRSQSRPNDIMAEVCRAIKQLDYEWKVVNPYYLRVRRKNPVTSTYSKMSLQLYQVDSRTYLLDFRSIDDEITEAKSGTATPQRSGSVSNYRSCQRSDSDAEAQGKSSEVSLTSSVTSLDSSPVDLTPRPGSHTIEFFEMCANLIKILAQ
T23 sequence (P53778 whole entry): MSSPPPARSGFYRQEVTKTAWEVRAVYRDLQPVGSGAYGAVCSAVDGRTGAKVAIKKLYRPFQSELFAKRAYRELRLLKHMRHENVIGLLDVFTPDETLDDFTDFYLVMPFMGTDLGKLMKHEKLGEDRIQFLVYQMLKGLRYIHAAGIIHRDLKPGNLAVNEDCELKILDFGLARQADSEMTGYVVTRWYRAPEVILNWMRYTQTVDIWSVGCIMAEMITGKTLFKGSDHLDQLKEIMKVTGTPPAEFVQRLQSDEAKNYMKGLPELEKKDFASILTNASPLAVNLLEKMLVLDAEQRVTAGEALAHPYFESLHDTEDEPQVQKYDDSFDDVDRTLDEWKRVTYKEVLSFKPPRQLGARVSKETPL
T20 sequence (Q86UE8 whole entry): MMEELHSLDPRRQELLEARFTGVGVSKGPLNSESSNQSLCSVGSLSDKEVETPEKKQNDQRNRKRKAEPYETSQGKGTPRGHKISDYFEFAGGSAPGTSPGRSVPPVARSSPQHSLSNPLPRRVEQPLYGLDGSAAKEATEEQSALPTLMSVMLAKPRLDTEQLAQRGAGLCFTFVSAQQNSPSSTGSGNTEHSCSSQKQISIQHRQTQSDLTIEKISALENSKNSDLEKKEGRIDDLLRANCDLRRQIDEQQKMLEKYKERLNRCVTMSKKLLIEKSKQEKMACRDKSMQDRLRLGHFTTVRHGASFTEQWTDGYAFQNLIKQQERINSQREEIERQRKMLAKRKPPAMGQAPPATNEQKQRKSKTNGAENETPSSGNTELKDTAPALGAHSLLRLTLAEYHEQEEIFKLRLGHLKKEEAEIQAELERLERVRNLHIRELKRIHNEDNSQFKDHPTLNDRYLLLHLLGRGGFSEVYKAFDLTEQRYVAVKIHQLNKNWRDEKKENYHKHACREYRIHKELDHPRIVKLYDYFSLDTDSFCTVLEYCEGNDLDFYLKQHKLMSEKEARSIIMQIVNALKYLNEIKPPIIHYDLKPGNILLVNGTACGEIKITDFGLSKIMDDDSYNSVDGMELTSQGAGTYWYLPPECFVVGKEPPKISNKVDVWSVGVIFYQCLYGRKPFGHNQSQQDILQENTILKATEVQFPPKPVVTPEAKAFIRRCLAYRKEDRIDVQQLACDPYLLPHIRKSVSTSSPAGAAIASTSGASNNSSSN
T16 sequence (Q15418 1-391 limits assumed): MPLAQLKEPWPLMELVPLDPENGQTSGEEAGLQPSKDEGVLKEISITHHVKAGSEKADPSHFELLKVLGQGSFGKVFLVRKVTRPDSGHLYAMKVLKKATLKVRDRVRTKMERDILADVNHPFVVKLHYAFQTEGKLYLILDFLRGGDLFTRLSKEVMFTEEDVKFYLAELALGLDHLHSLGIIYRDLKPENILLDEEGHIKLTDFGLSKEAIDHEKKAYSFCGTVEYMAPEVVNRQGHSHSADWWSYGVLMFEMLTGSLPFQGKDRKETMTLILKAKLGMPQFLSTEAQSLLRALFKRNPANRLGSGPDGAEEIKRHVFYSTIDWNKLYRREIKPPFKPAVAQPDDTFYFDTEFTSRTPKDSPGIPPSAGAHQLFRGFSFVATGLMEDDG
T9 sequence (P16591 whole entry): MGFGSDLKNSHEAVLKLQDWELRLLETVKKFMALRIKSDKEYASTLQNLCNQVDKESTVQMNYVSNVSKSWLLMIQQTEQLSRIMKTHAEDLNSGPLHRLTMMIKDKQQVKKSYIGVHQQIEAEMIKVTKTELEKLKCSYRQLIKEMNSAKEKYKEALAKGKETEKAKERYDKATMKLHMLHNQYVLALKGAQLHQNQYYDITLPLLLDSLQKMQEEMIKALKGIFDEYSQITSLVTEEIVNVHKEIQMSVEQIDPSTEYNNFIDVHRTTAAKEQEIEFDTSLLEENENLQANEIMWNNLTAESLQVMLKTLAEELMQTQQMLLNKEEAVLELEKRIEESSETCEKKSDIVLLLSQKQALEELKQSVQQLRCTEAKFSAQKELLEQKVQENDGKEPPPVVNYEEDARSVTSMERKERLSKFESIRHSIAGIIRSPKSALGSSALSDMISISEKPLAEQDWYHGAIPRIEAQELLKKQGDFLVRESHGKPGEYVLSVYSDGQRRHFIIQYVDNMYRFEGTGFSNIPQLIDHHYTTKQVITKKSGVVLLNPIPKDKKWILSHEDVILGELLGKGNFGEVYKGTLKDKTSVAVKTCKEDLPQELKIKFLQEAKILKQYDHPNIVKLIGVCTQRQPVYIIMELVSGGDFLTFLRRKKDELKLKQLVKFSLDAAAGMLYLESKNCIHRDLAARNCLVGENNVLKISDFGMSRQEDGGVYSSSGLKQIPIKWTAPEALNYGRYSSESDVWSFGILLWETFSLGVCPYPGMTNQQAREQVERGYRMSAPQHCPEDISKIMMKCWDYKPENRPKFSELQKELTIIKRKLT
T4 sequence (Q14012 whole entry): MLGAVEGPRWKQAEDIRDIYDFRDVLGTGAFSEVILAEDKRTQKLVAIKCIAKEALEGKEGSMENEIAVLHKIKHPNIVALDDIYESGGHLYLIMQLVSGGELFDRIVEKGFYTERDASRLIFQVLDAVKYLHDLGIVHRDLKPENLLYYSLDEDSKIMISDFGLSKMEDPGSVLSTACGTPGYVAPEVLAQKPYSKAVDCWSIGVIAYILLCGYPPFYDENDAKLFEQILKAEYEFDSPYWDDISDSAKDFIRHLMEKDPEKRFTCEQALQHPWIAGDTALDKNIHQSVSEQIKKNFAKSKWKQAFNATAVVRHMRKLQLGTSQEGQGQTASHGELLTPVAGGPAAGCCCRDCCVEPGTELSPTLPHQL

N[C@H]1CC[C@H](Nc2cc(-c3cccc(NCc4cccc(F)c4)n3)c(Cl)cn2)CC1 [i-CDK9, N2′-(trans-4-aminocyclohexyl)-5′-chloro-N6-(3-fluorobenzyl)-2,4′-bipyridine-2′,6-diamine]
remaining binding at 1 µM [1]: 100% | remaining binding at 1 µM (ACVR1; 1 µM i-CDK9): 100% | remaining binding at 10 µM (ACVR1; 10 µM i-CDK9): 100% | remaining binding at 1 µM (AMPK-alpha1; 1 µM i-CDK9): 84% | remaining binding at 10 µM (AMPK-alpha1; 10 µM i-CDK9): 93% | remaining binding at 1 µM (CAMK1; 1 µM i-CDK9): 96% | remaining binding at 10 µM (CAMK1; 10 µM i-CDK9): 100% | % Retention on Solid Support (CDC2L5): 100% | remaining binding at 1 µM (CSNK2A1; 1 µM i-CDK9): 100% | remaining binding at 10 µM (CSNK2A1; 10 µM i-CDK9): 100% | remaining binding at 1 µM (DYRK2; 1 µM i-CDK9): 7.1% | remaining binding at 10 µM (DYRK2; 10 µM i-CDK9): 33% | remaining binding at 1 µM (FAK; 1 µM i-CDK9): 88% | remaining binding at 10 µM (FAK; 10 µM i-CDK9): 99% | remaining binding at 1 µM (FER; 1 µM i-CDK9): 56% | remaining binding at 10 µM (FER; 10 µM i-CDK9): 100% | remaining binding at 1 µM (FLT3(N841I); 1 µM i-CDK9): 48% | remaining binding at 10 µM (FLT3(N841I); 10 µM i-CDK9): 72% | remaining binding at 1 µM (GRK7; 1 µM i-CDK9): 100% | remaining binding at 10 µM (GRK7; 10 µM i-CDK9): 84% | % Retention on Solid Support (JNK1; 1 µM i-CDK9): 80% | % Retention on Solid Support (JNK1; 10 µM i-CDK9): 34% | remaining binding at 1 µM (PIK3C2B; 1 µM i-CDK9): 100% | remaining binding at 10 µM (PIK3C2B; 10 µM i-CDK9): 95% | remaining binding at 1 µM (PIK3CA(E545K); 1 µM i-CDK9): 100% | remaining binding at 10 µM (PIK3CA(E545K); 10 µM i-CDK9): 95% | remaining binding at 1 µM (PRKCH; 1 µM i-CDK9): 83% | remaining binding at 10 µM (PRKCH; 10 µM i-CDK9): 80% | remaining binding at 1 µM ([2]; 1 µM i-CDK9): 100% | remaining binding at 10 µM ([2]; 10 µM i-CDK9): 82% | remaining binding at 1 µM (SNRK): 64% | remaining binding at 1 µM (SRMS; 1 µM i-CDK9): 99% | remaining binding at 10 µM (SRMS; 10 µM i-CDK9): 80% | remaining binding at 1 µM (TGFBR1; 1 µM i-CDK9): 95% | remaining binding at 10 µM (TGFBR1; 10 µM i-CDK9): 100% | remaining binding at 1 µM (TLK2; 1 µM i-CDK9): 100% | remaining binding at 10 µM (TLK2; 10 µM i-CDK9): 100% | remaining binding at 1 µM (TTK; 1 µM i-CDK9): 100% | remaining binding at 10 µM (TTK; 10 µM i-CDK9): 100% | remaining binding at 1 µM (ULK2; 1 µM i-CDK9): 100% | remaining binding at 10 µM (ULK2; 10 µM i-CDK9): 100% | remaining binding at 1 µM (p38-gamma; 1 µM i-CDK9): 100% | remaining binding at 10 µM (p38-gamma; 10 µM i-CDK9): 100%
